Patent publication US8921312B2, “Combination of insulin and ascorbate to enhance wound healing” (University of South Florida, priority 2006, dated 2014)

Legend:
collagen types I and V = experiment: Collagen helix stability: pepsin digestion of culture medium, SDS-PAGE; assay type: cell-based, bovine; conditions: pepsin in 0.5M acetic acid
Procedure: Cell Culture-Keratocytes were isolated from adult bovine corneas using two sequential collagenase digestions as previously described (see […], and […]. Production of prostaglandin D synthase as a keratan sulfate proteoglycan by cultured bovine keratocytes Invest Ophthalmol Vis Sci. 2001; 42:1201-1207; which is incorporated herein by reference). […] Each sample received a second 50 μl aliquot from the pepsin stock, and digestion was allowed to continue for an additional six hours at 4° C. The samples were titrated with 1 N NaOH to pH 8.0 to inactivate the enzyme, dialyzed against water overnight, lyophilized, reconstituted in 1 X SDS running buffer and separated on 10% bis-tris gels under reducing conditions. The gels were stained with Safestain following the manufacturer's protocol.

keratocan = experiment: Western blot of keratan sulfate proteoglycan accumulation in the medium: keratocan; assay type: cell-based, bovine
Procedure: (§1) Cell Culture-Keratocytes were isolated from adult bovine corneas using two sequential collagenase digestions as previously described (see […], and […]. Production of prostaglandin D synthase as a keratan sulfate proteoglycan by cultured bovine keratocytes Invest Ophthalmol Vis Sci. 2001; 42:1201-1207; which is incorporated herein by reference). […] Western blot analysis-Core protein and protein levels in the media were measured by Western blot as previously described. In brief, the culture media was collected from each culture condition, concentrated by spin filtration to one tenth or one fiftieth of the original volume. The size of the aliquot needed from each sample to provide a similar signal on film by Western blot was empirically determined. The measured pixel density was then divided by the DNA content of the culture equivalent to the amount loaded and expressed as pixel density per μg DNA. Blots were probed with polyclonal antibodies to bovine keratocan or lumican (diluted 1:1000) or prostaglandin D synthase (PGDS) (1:20,000). The lumican and keratocan antibodies are peptide antibodies raised against the core protein^48. The rabbit antiserum to bovine PGDS was a generous gift of Gary […] University). Membranes were rinsed and incubated for 1 hour in 1:10,000 horseradish peroxidase (HRP)-conjugated secondary IgG (GE Healthcare, Piscataway, N.J.). Protein bands were visualized using ECL (GE Healthcare, Piscataway, N.J.) on Kodak Bio-Max XAR X-ray film. Band density was measured using a Bio-Rad GS-710 Calibrated Imaging Densitometer (Bio-Rad, Hercules, Calif.).

lumican = experiment: Western blot of keratan sulfate proteoglycan accumulation in the medium: lumican; assay type: cell-based, bovine
Procedure: as §1

[1] = test system: prostaglandin D synthase (PGDS); experiment: Western blot of keratan sulfate proteoglycan accumulation in the medium: PGDS; assay type: cell-based, bovine
Procedure: as §1, with “Membranes were rinsed and incubated for 1 hour in 1:10,000 horseradish peroxidase (HRP)-conjugated secondary IgG (GE Healthcare, Piscataway, N.J.). Protein bands were visualized using ECL (GE Healthcare, Piscataway, N.J.) on Kodak Bio-Max XAR X-ray film.” left out

cells = conditions: cited from earlier work
keratocytes [2] = experiment: Keratocyte population growth in defined media (DNA content, Cyquant); assay type: cell-based, bovine; conditions: DMEM/F12; insulin 10 μg/ml, ascorbate 1 mM; days 1-10
Excerpt: Cell Culture-Keratocytes were isolated from adult bovine corneas using two sequential collagenase digestions as previously described (see […], and […]. Production of prostaglandin D synthase as a keratan sulfate proteoglycan by cultured bovine keratocytes Invest Ophthalmol Vis Sci. 2001; 42:1201-1207; which is incorporated herein by reference). […] DNA quantitation-Cell layers were harvested on days 1, 4, 7 and 10 to measure DNA content using Cyquant (Invitrogen, Carlsbad, Calif.). Briefly, the cell layers were rinsed with PBS, frozen, thawed and solubilized in a lysis buffer supplemented with a DNA binding dye. The DNA content was determined at 480/535 nm by measuring 4 wells in triplicate and comparing the values to a calf thymus DNA standard. The DNA content of parallel cultures was measured for experiments that utilized the cell layer. Cell proliferation-Cultures were radiolabeled with 20 μCi ^3H-thymidine/ml of medium for 72 hours beginning on days 1 and 4. The labeled medium was removed upon harvesting, and the cell layers washed with cold PBS. The cell layers were processed as described under DNA quantitation. Incorporation into DNA was determined as previously described.

keratocytes [3] = experiment: Collagen synthesis: 3H-glycine incorporation into collagenase-sensitive protein; assay type: cell-based, bovine; conditions: 3H-glycine 72 h
Procedure: Cell Culture—Keratocytes were isolated from adult bovine corneas using two sequential collagenase digestions as previously described (see Berryhill B L, Beales M P, and Hassell J R. Production of prostaglandin D synthase as a keratan sulfate proteoglycan by cultured bovine keratocytes Invest Ophthalmol Vis Sci. 2001; 42:1201-1207; which is incorporated herein by reference). Cells were plated in DMEM/F12 at high density (20,000 cells/cm^2) in 6-well plates (Costar, Cambridge, Mass.) and allowed to attach overnight at 37° C. in 5% CO2. The medium was changed the next day (day 1) and on days 4, 7 and 10 to fresh DMEM or DMEM supplemented with insulin (10 μg/ml), with or without 1 mM 2-phospho-L-ascorbic acid (ascorbate). Ethyl-3,4-dihydroxybenzoate (EDB) was added at 0.08 mM and 0.4 mM final concentration on day 1.
Collagen synthesis—The incorporation of ^3H-glycine into collagen was determined as previously described. In summary, cultures were incubated for 72 hours in medium containing 25 μCi ^3H-glycine/ml beginning on day 1. Media was adjusted to 4M guanidine HCl and the cell layers extracted in 4M guanidine HCl. Unincorporated isotope in media and cell layers was removed by chromatography on PD10 columns equilibrated and eluted with 4M guanidine HCl (GE Healthcare, Piscataway, N.J.). Fractions containing incorporated radioactivity were pooled, dialyzed against water and 400 μl aliquots incubated with or without 2.5 Units collagenase form III (Advanced Biofactures, Lynbrook, N.Y.) in collagenase digestion medium (3 mM N-ethyl maleimide, 50 mM Tris pH 7.5, 150 mM NaCl and 5 mM CaCl2) for 3 hours at 37° C. Undigested proteins were precipitated with carrier BSA using cold 10% TCA containing 0.5% tannic acid and released incorporated counts measured by liquid scintillation. The DNA content was determined as described above.

keratan sulfate = experiment: Incorporation of 35SO4 into keratan sulfate (endo-β-galactosidase sensitive); assay type: cell-based, bovine; conditions: 72 h labeling; medium; CPM per μg DNA; vs control
Excerpt: (§2) Cell Culture-Keratocytes were isolated from adult bovine corneas using two sequential collagenase digestions as previously described (see […], and […]. Production of prostaglandin D synthase as a keratan sulfate proteoglycan by cultured bovine keratocytes Invest Ophthalmol Vis Sci. 2001; 42:1201-1207; which is incorporated herein by reference). […] The medium was collected, frozen, lyophilized and reconstituted in 4 M guanidine HCl. Unincorporated isotope was removed using PD 10 columns Fractions containing incorporated ^35SO4 were combined and concentrated using Amicon Ultra spin-concentrators. Incorporation into CS and KS was determined by digestion with chondroitinase ABC or endo-β-galactosidase (Seikagaku, Associates of Cape Cod, E. Falmouth, Mass.) as previously described. Aliquots containing equivalent incorporated radioactivity were fractionated using a Superose 6 12/30 HR column (GE Healthcare, Piscataway, N.J.) equilibrated and eluted with 4M guanidine HCl (0.05 NaAc, pH6.5) at 0.3 ml/min Fractions (0.6 ml) were collected and incorporation measured by liquid scintillation counting. The levels of CS and KS in each fraction were determined as described above.

chondroitin sulfate = experiment: Incorporation of 35SO4 into chondroitin sulfate (chondroitinase ABC sensitive); assay type: cell-based, bovine; conditions: 72 h labeling; medium; CPM per μg DNA; vs control
Excerpt: as §2

[4] = 0.08 mM EDB in medium containing insulin and ascorbate, 72 hours, vs insulin+ascorbate
[5] = 0.4 mM EDB in medium containing insulin and ascorbate
[6] = medium day 4, pixel density per μg DNA, vs control

Molecule: CCOC(=O)c1ccc(O)c(O)c1 [EDB, Ethyl-3,4-dihydroxybenzoate]
- Pepsin-resistant collagen bands in the medium with EDB (collagen types I and V; 0.4 mM EDB in insulin plus ascorbate medium): absent
- Reduction of keratocan accumulation (keratocan; [4]): 28%
- Keratocan accumulation in the medium (keratocan; [5]): levels below of those measured in insulin alone
- Reduction of lumican accumulation (lumican; [4]): 19%
- Lumican accumulation in the medium (lumican; [5]): levels below of those measured in insulin alone
- PGDS level in the medium with EDB ([1]; EDB in medium containing insulin and ascorbate): declined but the decrease was not significant
- Toxicity to the cells (cells): not toxic to the cells

Molecule: insulin: insulin added at 10 μg/ml to defined DMEM medium for keratocyte culture
- Cell number (DNA content) over 10-day culture period (keratocytes [2]): increased in number
- Total collagen synthesized, fold more compared to control (keratocytes [3]; day 1-4, insulin 10 μg/ml, ascorbate 1 mM, vs control medium): 4 fold
- Collagen in the cell layer, fold increase compared to control (keratocytes [3]; cell layer, vs control): 5 fold
- Collagen in the medium, fold increase compared to control (keratocytes [3]; medium, vs control): 3 fold
- Pepsin-resistant collagen (α1(I), α2(I), α1(V) bands) in the medium (collagen types I and V; SDS-PAGE): absent
- Keratocan level in the medium, fold increase compared to control (keratocan; [6]): no effect
- Lumican level in the medium, fold increase compared to control (lumican; [6]): no effect
- PGDS level in the medium [1, 6]: neither ascorbate nor insulin affected PGDS levels
- 35SO4 incorporation into KS, fold compared to control (keratan sulfate): only minor changes
- 35SO4 incorporation into CS, fold compared to control (chondroitin sulfate): only minor changes
